We go through one molecule from patent publication US8557823B2, “Family of PFKFB3 inhibitors with anti-neoplastic activities” (Advanced Cancer Therapeutics, LLC, priority 2007, dated 2013).

The subject of experiment [1] is PFKFB3 over-expressing Jurkat cells. Put plainly: Growth inhibition of Jurkat cells over-expressing PFKFB3 (Tet-ON, doxycycline). The format is cell-based. Conditions: Homo sapiens, 48 hours. As to the method:
FIG. 6D is a bar graph showing the anti-proliferative effects of 3PO in Jurkat cells engineered to over-express PFKFB3 through doxycylin treatment utilizing the Tet-on system (+PFKFB3, striped bars). Twenty-four hours prior to 3PO treatment, 1 μg/mL of doxycyclin is incubated with Jurkat cells containing a PFKFB3-expressing vector in order to induce PFKFB3 protein levels. Control cells (−PFKFB3, solid bars) containing an empty vector were similarly treated with doxycyclin and served as background PFKFB3 expression. Both cell types were subsequently incubated with increasing concentrations of 3PO (1, 3, 10, or 33 μM) or vehicle (V), and viable cells were analyzed after 48 hours. The bars represent the mean±STD of triplicate values from a representative experiment.
FLAG-PFKFB3 containing the complete PFKFB3 coding sequence and FLAG-epitope at its N-terminus was subcloned into the BamHI/HindIII restriction sites within the retroviral Tet response vector pRevTRE (Clontech, Mountain View, Calif., United States of America). Recombinant retrovirus was produced by Lipofectamine-mediated (Invitrogen, Carlsbad, Calif., United States of America) transfection of the pRevTRE-FLAG-PFKFB3 construct into PT67 packaging cell lines. […]
Cells were collected 48 hours post-treatment, and cell number and viability were determined by trypan blue exclusion. […]

The test system of experiment [2] is Lewis Lung Carcinoma xenografts. Put plainly: Lewis Lung Carcinoma xenografts in C57/Blk6 mice. It counts as in vivo. Conditions: 0.07 mg/g IP once daily, 14 days. As to the method: FIG. 7A is a graph showing the effects of 3PO treatment on the growth of Lewis Lung Carcinoma tumor xenografts in C57/Blk6 mice. Tumors were measured daily using blunt end Vernier calipers, and mice with established tumors (130-190 mg) were blindly randomized into either a DMSO control group (•, n=11) or a 3PO treatment group (∘, n=14). Experimental mice were weighed and given daily intraperitoneal (i.p.) injections of either 50 μL DMSO or 0.07 mg/g 3PO in 50 μL DMSO at the indicated time points. Arrows (↓) represent control or 3PO daily administrations. Statistically significant difference between DMSO and 3PO groups was obtained after initial injection (Day 2, p-value<0.0003).
Exponentially growing MDA-MB231 and HL-60 cells were collected in appropriate medium, washed twice and resuspended in PBS at a concentration of 20×10^7 cells/mL. […] Body weight and tumor growth were monitored daily throughout the study. Tumor masses were determined by measurement with Vernier calipers using the formula: mass (mg)=[width (mm^2)×length (mm)]/2. […]
The first tumor model tested consisted of mouse Lewis Lung Carcinoma xenografts grown in C57/Blk6 mice. For this study, mice were given IP injections of either DMSO or the calculated dose of 1 once daily for the duration of the study (14 days). […]

Experiment [3] relates to +/+ ht/LT/ras fibroblasts. Put plainly: Growth inhibition of wild-type transformed fibroblasts. The format is cell-based, mice. The note with it: Mus musculus, Fibroblast, 48 hours. From the text:
FIG. 6B is a bar graph showing the anti-proliferative effects of 3PO in fibroblasts from wild-type (+/+) or haplo-insufficient (+/−) PFKFB3 mice which were subsequently immortalized and transformed with human telomerase (ht), large T antigen (LT), and oncogenic H-ras^v12. Cell numbers (expressed as % of cell numbers of control cells) for transformed wild type (+/+) cells are shown in solid bars and numbers for transformed haplo-insufficient (+/−) cells are shown in striped bars. As indicated at the bottom of the graph, cells were incubated with vehicle or increasing amounts of 3PO (5, 10, 20, 30, 40, or 60 μM). Viable cells were counted after 48 hours. The bars represent the mean±STD of triplicate values from a representative experiment. * p-value<0.01 represents statistical difference between vehicle control and 3PO treated samples.
Cells were collected 48 hours post-treatment, and cell number and viability were determined by trypan blue exclusion. IC50 values were calculated as the compound 1 concentration needed for 50% of vehicle treated cell growth.
One of the most difficult challenges of new anti-neoplastic therapies is in situ target validation. To address this question, two different cell lines with varying levels of PFKFB3 expression were studied. […]

pIC50: −log10 of the molar value.

Take `O=C(/C=C/c1cccnc1)c1ccncc1` [Compound 1, 3-(3-pyridinyl)-1-(4-pyridinyl)-2-propen-1-one]: the negative-log IC50 (pIC50) in experiment [1] is 4.71; in experiment [3], 4.31. The “suppression of xenograft growth compared to DMSO control” value in experiment [2] came to 73%.

By pIC50 is commonly meant the IC50 on a negative log10 scale, so that one unit is a factor of ten. Read a low pIC50 as a large IC50.
